Laboratory results reported in PubChem BioAssay AID248 (DTP/NCI, 2004).
Values joined by “and” are separate entries in the source; they are usually repeats but may differ in a detail not shown here. Equal entries are not always repeated. Inconclusive results and toxic doses are left out. Cut-off read from the data, not from the text of the source: active = T/C of 150% or more; inactive = T/C below 125%.

Tested on: L1210 leukemia ip in BDF1 mice, survival T/C
Experiment: NCI In Vivo Anticancer Drug Screen. Data for tumor model L1210 Leukemia (intraperitoneal) in B6D2F1 (BDF1) mice
Conditions: endpoint: mean survival time, higher = longer survival
In short: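 Survival endpoint. Drug-treated group vs vehicle group, expressed as T divided by C. Tumor passaged by transplantation.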

[1] = dose: 100.0 mg/kg/injection, schedule: Q04DX003 (ip), vehicle: Klucel (hydroxypropylcellulose) (HPC)
[2] = dose: 200.0 mg/kg/injection, schedule: Q04DX003 (ip), vehicle: Klucel (hydroxypropylcellulose) (HPC)
[3] = dose: 400.0 mg/kg/injection, schedule: Q04DX003 (ip), vehicle: Klucel (hydroxypropylcellulose) (HPC)
[4] = dose: 100.0 mg/kg/injection, schedule: Q01DX009 (ip), vehicle: Klucel (hydroxypropylcellulose) (HPC)
[5] = dose: 200.0 mg/kg/injection, schedule: Q01DX009 (ip), vehicle: Klucel (hydroxypropylcellulose) (HPC)
[6] = dose: 400.0 mg/kg/injection, schedule: Q01DX009 (ip), vehicle: Klucel (hydroxypropylcellulose) (HPC)
[7] = dose: 50.0 mg/kg/injection, schedule: Q01DX009 (ip), vehicle: Klucel (hydroxypropylcellulose) (HPC)
[8] = dose: 100.0 mg/kg/injection, schedule: Q01DX001 (ip), vehicle: saline
[9] = dose: 200.0 mg/kg/injection, schedule: Q01DX001 (ip), vehicle: saline
[10] = dose: 400.0 mg/kg/injection, schedule: Q01DX001 (ip), vehicle: saline
[11] = dose: 100.0 mg/kg/injection, schedule: Q01DX001 (ip), vehicle: carboxymethylcellulose (CMC)
[12] = dose: 200.0 mg/kg/injection, schedule: Q01DX001 (ip), vehicle: carboxymethylcellulose (CMC)
[13] = dose: 400.0 mg/kg/injection, schedule: Q01DX001 (ip), vehicle: carboxymethylcellulose (CMC)

Measured: T/C

O/C(=C\C(=S)S)c1ccc(Cl)cc1
inactive: dose: 0.06 mg/kg/injection, schedule: Q01DX009 (ip), vehicle: saline with Tween-80 103 % of control | dose: 0.12 mg/kg/injection, schedule: Q01DX009 (ip), vehicle: saline with Tween-80 105 % of control | dose: 0.25 mg/kg/injection, schedule: Q01DX009 (ip), vehicle: saline with Tween-80 98 % of control | dose: 0.5 mg/kg/injection, schedule: Q01DX009 (ip), vehicle: saline with Tween-80 112 % of control and 120 % of control | dose: 1.0 mg/kg/injection, schedule: Q01DX009 (ip), vehicle: saline with Tween-80 102 % of control and 107 % of control | dose: 1.0 mg/kg/injection, schedule: Q04DX003 (ip), vehicle: saline with Tween-80 103 % of control | dose: 2.0 mg/kg/injection, schedule: Q01DX009 (ip), vehicle: saline with Tween-80 107 % of control | dose: 2.0 mg/kg/injection, schedule: Q04DX003 (ip), vehicle: saline with Tween-80 97 % of control | dose: 4.0 mg/kg/injection, schedule: Q04DX003 (ip), vehicle: saline with Tween-80 97 % of control | dose: 8.0 mg/kg/injection, schedule: Q04DX003 (ip), vehicle: saline with Tween-80 105 % of control

CC(=O)Nc1ccc(/C=N\NC(=O)C2CC2)cc1
inactive: [1] 100 % of control | [2] 87 % of control | [3] 87 % of control

O=c1oc(-c2ccccc2I)nc2ccccc12
inactive: dose: 50.0 mg/kg/injection, schedule: Q04DX003 (ip), vehicle: Klucel (hydroxypropylcellulose) (HPC) 88 % of control | [4] 95 % of control | [1] 103 % of control | [5] 97 % of control | [2] 97 % of control | [6] 88 % of control | [3] 104 % of control

CN1CCC(COC(=O)C(O)(c2ccccc2)c2ccccc2)C1 (stereo unspecified)
inactive: dose: 25.0 mg/kg/injection, schedule: Q04DX003 (ip), vehicle: saline with Tween-80 97 % of control | dose: 50.0 mg/kg/injection, schedule: Q04DX003 (ip), vehicle: saline with Tween-80 94 % of control | dose: 100.0 mg/kg/injection, schedule: Q04DX003 (ip), vehicle: saline with Tween-80 101 % of control and 87 % of control

Nc1nc(N)c(CCCCc2ccccc2)c(-c2ccccc2)n1
inactive: [7] 98 % of control | [4] 95 % of control | [5] 95 % of control

Nc1ccccc1C(=O)ONC(=O)c1ccccc1
inactive: dose: 100.0 mg/kg/injection, schedule: Q04DX003 (ip), vehicle: carboxymethylcellulose (CMC) 97 % of control | dose: 200.0 mg/kg/injection, schedule: Q04DX003 (ip), vehicle: carboxymethylcellulose (CMC) 93 % of control | dose: 400.0 mg/kg/injection, schedule: Q04DX003 (ip), vehicle: carboxymethylcellulose (CMC) 92 % of control

CC(=O)OCCC(OC(C)=O)c1ccccn1 (stereo unspecified)
inactive: dose: 50.0 mg/kg/injection, schedule: Q01DX001 (ip), vehicle: saline 100 % of control | [8] 103 % of control | [9] 97 % of control | [10] 103 % of control

CCC(=O)Cc1ccc2[nH]c(C)cc(=O)c2c1
inactive: [8] 96 % of control | [9] 98 % of control | [10] 88 % of control

CN(C)CC1CC2(CC(CN(C)C)C1=O)OCCO2 (stereo unspecified)
inactive: dose: 9.38 mg/kg/injection, schedule: Q01DX001 (ip), vehicle: other 98 % of control | dose: 18.75 mg/kg/injection, schedule: Q01DX001 (ip), vehicle: other 97 % of control | dose: 37.5 mg/kg/injection, schedule: Q01DX001 (ip), vehicle: other 104 % of control

CCCCCCCCCCCCCCCC[N+]1(C)CCOCC1
inactive: [7] 114 % of control | [4] 93 % of control

ClCCNCc1cccc(Nc2ccnc3cc(Cl)ccc23)c1
inactive: dose: 75.0 mg/kg/injection, schedule: Q01DX001 (ip), vehicle: carboxymethylcellulose (CMC) 103 % of control | dose: 150.0 mg/kg/injection, schedule: Q01DX001 (ip), vehicle: carboxymethylcellulose (CMC) 95 % of control

O=[N+]([O-])c1cc2c3ccccc3c(F)cc2c2ccccc12
inactive: [4] 98 % of control | [1] 96 % of control | [5] 98 % of control | [2] 91 % of control | [6] 98 % of control | [3] 101 % of control

O=NN(c1ccccc1)c1ccc2ccccc2c1
inactive: [1] 105 % of control | [2] 110 % of control | [3] 110 % of control

CC12CCCC(O)(C1)NC(=O)C2C#N (stereo unspecified)
inactive: [11] 102 % of control | [12] 97 % of control | [13] 94 % of control

c1ccc(Cc2cccc[n+]2Cc2ccccc2)cc1
inactive: dose: 12.5 mg/kg/injection, schedule: Q04DX003 (ip), vehicle: saline 102 % of control | dose: 25.0 mg/kg/injection, schedule: Q04DX003 (ip), vehicle: saline 105 % of control

C[N+]1(C)C2CC(OC(=O)C(CO)c3ccccc3)CC1C1OC12 (stereo unspecified)
inactive: dose: 75.0 mg/kg/injection, schedule: Q01DX001 (ip), vehicle: other 106 % of control

O=C(C=C(C(F)(F)F)C(F)(F)F)/C=C/c1ccccc1
inactive: dose: 1.0 mg/kg/injection, schedule: Q01DX009 (ip), vehicle: other 97 % of control | dose: 2.0 mg/kg/injection, schedule: Q01DX009 (ip), vehicle: other 109 % of control | dose: 2.5 mg/kg/injection, schedule: Q04DX003 (ip), vehicle: other 97 % of control | dose: 3.13 mg/kg/injection, schedule: Q01DX009 (ip), vehicle: other 102 % of control | dose: 4.0 mg/kg/injection, schedule: Q01DX009 (ip), vehicle: other 97 % of control | dose: 5.0 mg/kg/injection, schedule: Q04DX003 (ip), vehicle: other 97 % of control | dose: 10.0 mg/kg/injection, schedule: Q04DX003 (ip), vehicle: other 92 % of control | dose: 12.5 mg/kg/injection, schedule: Q04DX003 (ip), vehicle: other 88 % of control

CC(=O)NCC[CH2][Sn]([c]1ccccc1)([c]1ccccc1)[c]1ccccc1
inactive: dose: 50.0 mg/kg/injection, schedule: Q01DX009 (ip), vehicle: saline 100 % of control | dose: 100.0 mg/kg/injection, schedule: Q01DX009 (ip), vehicle: saline 100 % of control | dose: 200.0 mg/kg/injection, schedule: Q01DX009 (ip), vehicle: saline 110 % of control

Cc1cc(=O)c2cc(C(=O)c3ccccc3)ccc2[nH]1
inactive: [8] 101 % of control | [9] 98 % of control | [10] 107 % of control

CCCCN(CCCC)C(=O)c1[nH]cnc1/N=N\N(C)C
inactive: dose: 50.0 mg/kg/injection, schedule: Q01DX009 (ip), vehicle: saline with Tween-80 117 % of control | dose: 100.0 mg/kg/injection, schedule: Q01DX001 (ip), vehicle: saline with Tween-80 106 % of control | dose: 100.0 mg/kg/injection, schedule: Q01DX009 (ip), vehicle: saline with Tween-80 108 % of control | dose: 200.0 mg/kg/injection, schedule: Q01DX001 (ip), vehicle: saline with Tween-80 118 % of control

COc1ccc(OCCCCCCCCCCBr)cc1
inactive: dose: 100.0 mg/kg/injection, schedule: Q04DX002 (ip), vehicle: other 101 % of control | dose: 200.0 mg/kg/injection, schedule: Q04DX002 (ip), vehicle: other 96 % of control | dose: 400.0 mg/kg/injection, schedule: Q04DX002 (ip), vehicle: other 93 % of control

Nc1ccc(Cc2ccc(N)cc2[N+](=O)[O-])c([N+](=O)[O-])c1
inactive: [11] 98 % of control | [12] 105 % of control | [13] 100 % of control

N#CCCP(=S)(c1ccccc1)c1ccccc1
inactive: dose: 100.0 mg/kg/injection, schedule: Q01DX001 (ip), vehicle: other 104 % of control | dose: 100.0 mg/kg/injection, schedule: Q04DX003 (ip), vehicle: other 102 % of control | dose: 200.0 mg/kg/injection, schedule: Q01DX001 (ip), vehicle: other 98 % of control | dose: 200.0 mg/kg/injection, schedule: Q04DX003 (ip), vehicle: other 96 % of control | dose: 400.0 mg/kg/injection, schedule: Q01DX001 (ip), vehicle: other 102 % of control | dose: 400.0 mg/kg/injection, schedule: Q04DX003 (ip), vehicle: other 90 % of control

S=P(c1ccccc1)(c1ccccc1)c1ccccc1
inactive: dose: 50.0 mg/kg/injection, schedule: Q04DX002 (ip), vehicle: saline 96 % of control | dose: 100.0 mg/kg/injection, schedule: Q04DX002 (ip), vehicle: saline 93 % of control | dose: 200.0 mg/kg/injection, schedule: Q04DX002 (ip), vehicle: saline 96 % of control
